Test results from patent publication US20250051356A1, “RIFABUTIN ANALOGS FOR THE TREATMENT OF DISEASE” (priority 2021, published 2025).
Values after ≈ are worked out from the molar mass of the structure shown. Where two headings read alike, the source gives them in different places.

Experiments:
Format in all cases: cell-based
[1] = tested on: S. aureus (UAMS-1625 strain); assay: MIC by broth microdilution against S. aureus; settings: Staphylococcus aureus, read-out: MIC S. aureus
[2] = tested on: A. baumannii (HUMC1 strain); assay: MIC by broth microdilution against A. baumannii in RPMI + 10% FCS; settings: Acinetobacter baumannii, read-out: MIC A. baumannii
[3] = tested on: M. abscessus subsp. abscessus ATCC 19977; assay: MIC against M. abscessus in Middlebrook 7H9 + ADC; settings: Mycobacteroides abscessus
M. kansasii (ATCC 12478) = assay: MIC against M. kansasii in CAMHB + ADC; settings: Mycobacterium kansasii
M. xenopi (ATCC 19250) = assay: MIC against M. xenopi in CAMHB + ADC; settings: Mycobacterium xenopi
M. avium (ATCC 25291) = assay: MIC against M. avium in CAMHB + ADC; settings: Mycobacterium avium
[4] = ATCC19977, read-out: MIC M. abscessus
[5] = ATCC12478, read-out: MIC M. kansasii
[6] = ATCC19250, read-out: MIC M. xenopi
[7] = ATCC25291, read-out: MIC M. avium
[8] = ATCC19977, ATCC 19977, 7H9 + ADC, read-out: MIC M. abscessus
[9] = ATCC12478, ATCC 12478, CAMHB + ADC (5%), read-out: MIC M. kansasii
[10] = ATCC19250, ATCC 19250, CAMHB + ADC (5%), read-out: MIC M. xenopi
[11] = ATCC25291, ATCC 25291, CAMHB + ADC (5%), read-out: MIC M. avium

Compound | MIC [1] [µg/mL] | MIC [2] [µg/mL] | MIC [3, 4] [µg/mL] | MIC (M. kansasii (ATCC 12478); [5]) [µg/mL] | MIC (M. xenopi (ATCC 19250); [6]) [µg/mL] | MIC (M. avium (ATCC 25291); [7]) [µg/mL] | MIC ([2]; HUMC1 strain, RPMI + 10% FCS) [µg/mL] | MIC [3, 8] [µg/mL] | MIC (M. kansasii (ATCC 12478); [9]) [µg/mL] | MIC (M. xenopi (ATCC 19250); [10]) [µg/mL] | MIC (M. avium (ATCC 25291); [11]) [µg/mL]
CO[C@H]1/C=C/O[C@@]2(C)Oc3c(C)c(O)c4c(c3C2=O)C2=NC3(CCN(CC(C)C)CC3)NC2=C(NC(=O)/C(C)=C\C=C\[C@H](C)[C@H](O)[C@@H](C)[C@@H](O)[C@@H](C)[C@H](OC(=O)CC(=O)N2CCC(Nc3ccccc3C#N)CC2)[C@@H]1C)C4=O [Compound 107] | 0.25 (≈ 0.233 µM) | 0.5 | 0.125 | 0.016 | 0.06 | 0.125 |  |  |  |  | 
CO[C@H]1/C=C/O[C@@]2(C)Oc3c(C)c(O)c4c(c3C2=O)C2=NC3(CCN(CC(C)C)CC3)NC2=C(NC(=O)/C(C)=C\C=C\[C@H](C)[C@H](O)[C@@H](C)[C@@H](O)[C@@H](C)[C@H](OC(=O)C(C)C(=O)N2CCCN(c3ccc(F)cc3)CC2)[C@@H]1C)C4=O (stereo partly drawn) [Compound 108] | 0.25 (≈ 0.231 µM) |  |  |  |  |  | 0.06 | 0.25 | 0.008 | 0.06 | 0.25
CO[C@H]1/C=C/O[C@@]2(C)Oc3c(C)c(O)c4c(c3C2=O)C2=NC3(CCN(CC(C)C)CC3)NC2=C(NC(=O)/C(C)=C\C=C\[C@H](C)[C@H](O)[C@@H](C)[C@@H](O)[C@@H](C)[C@H](OC(=O)CC(=O)N2CCC(Nc3cccnc3)CC2)[C@@H]1C)C4=O [Compound 109] | 0.06 (≈ 0.0571 µM) | 0.004 | 0.25 | 0.03 | 0.25 | 1 |  |  |  |  | 
CO[C@H]1/C=C/O[C@@]2(C)Oc3c(C)c(O)c4c(c3C2=O)C2=NC3(CCN(CC(C)C)CC3)NC2=C(NC(=O)/C(C)=C\C=C\[C@H](C)[C@H](O)[C@@H](C)[C@@H](O)[C@@H](C)[C@H](OC(=O)CC(=O)N2CCC(Nc3ccncc3Cl)CC2)[C@@H]1C)C4=O [Compound 110] | 0.125 (≈ 0.115 µM) |  | 0.125 |  | 0.125 |  | 0.06 |  | 0.008 |  | 0.25
CO[C@H]1/C=C/O[C@@]2(C)Oc3c(C)c(O)c4c(c3C2=O)C2=NC3(CCN(CC(C)C)CC3)NC2=C(NC(=O)/C(C)=C\C=C\[C@H](C)[C@H](O)[C@@H](C)[C@@H](O)[C@@H](C)[C@H](OC(=O)CC(=O)N2CCN(c3ccncc3)CC2)[C@@H]1C)C4=O [Compound 116] | 0.06 (≈ 0.0579 µM) |  |  |  |  |  | ≤ 0.002 | 0.25 | 0.06 | 1 | 2
CO[C@H]1/C=C/O[C@@]2(C)Oc3c(C)c(O)c4c(c3C2=O)C2=NC3(CCN(CC(C)C)CC3)NC2=C(NC(=O)/C(C)=C\C=C\[C@H](C)[C@H](O)[C@@H](C)[C@@H](O)[C@@H](C)[C@H](OC(=O)CC(=O)N2CCN(c3ncccn3)CC2)[C@@H]1C)C4=O [Compound 117] | 0.03 (≈ 0.0289 µM) |  |  |  |  |  | ≤ 0.002 | 0.125 | 0.004 | 0.125 | 0.25
CO[C@H]1/C=C/O[C@@]2(C)Oc3c(C)c(O)c4c(c3C2=O)C2=NC3(CCN(CC(C)C)CC3)NC2=C(NC(=O)/C(C)=C\C=C\[C@H](C)[C@H](O)[C@@H](C)[C@@H](O)[C@@H](C)[C@H](OC(=O)CC(=O)N2CCN(Cc3ccccn3)CC2)[C@@H]1C)C4=O [Compound 118] | 0.06 (≈ 0.0571 µM) |  |  |  |  |  | ≤ 0.002 | 0.25 | 0.03 | 0.25 | 2
CO[C@H]1/C=C/O[C@@]2(C)Oc3c(C)c(O)c4c(c3C2=O)C2=NC3(CCN(CC(C)C)CC3)NC2=C(NC(=O)/C(C)=C\C=C\[C@H](C)[C@H](O)[C@@H](C)[C@@H](O)[C@@H](C)[C@H](OC(=O)CC(=O)N2CCN(Cc3ccncc3)CC2)[C@@H]1C)C4=O [Compound 119] | 0.016 (≈ 0.0152 µM) |  |  |  |  |  | ≤ 0.002 | 0.25 | 0.008 | 0.25 | 1
CO[C@H]1/C=C/O[C@@]2(C)Oc3c(C)c(O)c4c(c3C2=O)C2=NC3(CCN(CC(C)C)CC3)NC2=C(NC(=O)/C(C)=C\C=C\[C@H](C)[C@H](O)[C@@H](C)[C@@H](O)[C@@H](C)[C@H](OC(=O)CC(=O)N2CCCN(C)CC2)[C@@H]1C)C4=O [Compound 120] | 0.06 (≈ 0.0608 µM) |  |  |  |  |  | 0.06 | 0.25 | 0.25 | 1 | 2
CO[C@H]1/C=C/O[C@@]2(C)Oc3c(C)c(O)c4c(c3C2=O)C2=NC3(CCN(CC(C)C)CC3)NC2=C(NC(=O)/C(C)=C\C=C\[C@H](C)[C@H](O)[C@@H](C)[C@@H](O)[C@@H](C)[C@H](OC(=O)CC(=O)N2CCCN(c3ccccn3)CC2)[C@@H]1C)C4=O [Compound 122] | 0.06 (≈ 0.0571 µM) |  |  |  |  |  | ≤ 0.002 | 0.125 | 0.002 | 0.03 | 0.125
CO[C@H]1/C=C/O[C@@]2(C)Oc3c(C)c(O)c4c(c3C2=O)C2=NC3(CCN(CC(C)C)CC3)NC2=C(NC(=O)/C(C)=C\C=C\[C@H](C)[C@H](O)[C@@H](C)[C@@H](O)[C@@H](C)[C@H](OC(=O)CC(=O)N2CCCN(c3cccc(C(F)(F)F)n3)CC2)[C@@H]1C)C4=O [Compound 123] | 0.5 (≈ 0.447 µM) |  |  |  |  |  | 0.25 | 0.25 | 0.008 | 0.125 | 0.06
CO[C@H]1/C=C/O[C@@]2(C)Oc3c(C)c(O)c4c(c3C2=O)C2=NC3(CCN(CC(C)C)CC3)NC2=C(NC(=O)/C(C)=C\C=C\[C@H](C)[C@H](O)[C@@H](C)[C@@H](O)[C@@H](C)[C@H](OC(=O)CC(=O)N2CCCN(c3ncccn3)CC2)[C@@H]1C)C4=O [Compound 124] | 0.03 (≈ 0.0285 µM) |  |  |  |  |  | ≤ 0.002 | 0.125 | 0.008 | 0.125 | 0.125
CO[C@H]1/C=C/O[C@@]2(C)Oc3c(C)c(O)c4c(c3C2=O)C2=NC3(CCN(CC(C)C)CC3)NC2=C(NC(=O)/C(C)=C\C=C\[C@H](C)[C@H](O)[C@@H](C)[C@@H](O)[C@@H](C)[C@H](OC(=O)CC(=O)N2CCCN(c3nccc(C(F)(F)F)n3)CC2)[C@@H]1C)C4=O [Compound 125] | 0.5 (≈ 0.447 µM) |  |  |  |  |  | 0.25 | 0.125 | 0.008 | 0.06 | 0.03
CO[C@H]1/C=C/O[C@@]2(C)Oc3c(C)c(O)c4c(c3C2=O)C2=NC3(CCN(CC(C)C)CC3)NC2=C(NC(=O)/C(C)=C\C=C\[C@H](C)[C@H](O)[C@@H](C)[C@@H](O)[C@@H](C)[C@H](OC(=O)CC(=O)N2CCCN(Cc3ccccc3)CC2)[C@@H]1C)C4=O [Compound 126] | 0.125 (≈ 0.118 µM) |  | 0.125 |  |  |  | 0.004 |  | 0.004 | 0.03 | 0.03
CO[C@H]1/C=C/O[C@@]2(C)Oc3c(C)c(O)c4c(c3C2=O)C2=NC3(CCN(CC(C)C)CC3)NC2=C(NC(=O)/C(C)=C\C=C\[C@H](C)[C@H](O)[C@@H](C)[C@@H](O)[C@@H](C)[C@H](OC(=O)CC(=O)N2CCCN(Cc3ccc(F)cc3)CC2)[C@@H]1C)C4=O [Compound 127] | 0.25 (≈ 0.231 µM) |  |  |  |  |  | 0.06 | 0.125 | 0.008 | 0.03 | 0.125
CO[C@H]1/C=C/O[C@@]2(C)Oc3c(C)c(O)c4c(c3C2=O)C2=NC3(CCN(CC(C)C)CC3)NC2=C(NC(=O)/C(C)=C\C=C\[C@H](C)[C@H](O)[C@@H](C)[C@@H](O)[C@@H](C)[C@H](OC(=O)CC(=O)N2CCCN(Cc3ccncc3)CC2)[C@@H]1C)C4=O [Compound 128] | 0.06 (≈ 0.0564 µM) |  |  |  |  |  | ≤ 0.002 | 0.25 | 0.03 | 0.25 | 0.5
